Results: US12583870B2, “Azaheteroaryl compound and application thereof” (SHANGHAI BLUERAY BIOPHARMA CO., LTD., priority 2019, dated 2026)

Assays:
[1] = target: T1, EED protein (His6-tagged full-length) binding to H3K27me3 polypeptide (Homo sapiens, UniProt O75530); assay: AlphaScreen evaluation of blocking the binding of EED to H3K27Me3; details: EED 60 nM, biotinylated H3K27me3 75 nM, 30 minutes incubation
T1 construct: His6-tagged full-length EED protein (441 amino acids)
Procedure: Firstly, compound solutions of different concentration gradients were prepared. Compound powder was dissolved in DMSO to prepare a mother liquor. 1.5 μl of the mother liquor of the compound was taken and added into 198.5 μl of a reaction buffer (25 mM HEPES (pH 8.0), 50 mM NaCl, 0.015% Tween 20, 0.5% BSA). The mixture was mixed uniformly. Then a 3-fold series dilution was carried out with the above-mentioned buffer containing 0.75% DMSO. 9 different test concentrations were provided for one same compound. 5 μL of compounds of different concentration gradients were taken and added into the ProxiPlate-384 Plus, White detection plate (PerkinElmer, 6008280) and two replicates in parallel were provided for each concentration gradient.
Secondly, a reaction for blocking the binding was carried out. The above-mentioned buffer was used to dilute His6-tagged full-length EED protein (441 amino acids) to 60 nM and biotinylated polypeptide fragment H3K27me3 (amino acids at positions 19-33) (Biotinylated-H3K27me3) to 75 nM. 5 μl of the polypeptide fragment at the concentration of 75 nM and 5 µl of the protein at the concentration of 60 nM were transferred to the detection wells containing the compound, respectively. The detection plate was sealed with the film and incubation was carried out at room temperature for 30 minutes.
Finally, the detection was carried out with the AlphaScreen method. Prior use, nickel chelate receptor beads and streptavidin donor beads (at the ratio of 1:1, Perkin Elmer, product number 6760619M) were mixed with the above-mentioned reaction buffer. Then 5 μl of the above-mentioned pre-mixed detection solution was added to each of the detection wells. The donor beads and receptor beads were both at a final concentration of 5 μg/mL. The detection plate was covered and sealed with tinfoil and placed in the dark at room temperature for 1 hour. The signal was read using the AlphaScreen detector on the Spectra max i3. AlphaScreen signals were standardlized based on the readings obtained from positive controls (maximum signal controls) and negative controls (minimum signal controls) to give the inhibition rates for compounds at different concentrations, and afterwards non-linear regression analysis was carried out using GraphPad Prism 5, inhibition curves were made based on the Dose-Response equation of Y=Bottom+(Top−Bottom)/(1+10^((Log IC50−X)*HillSlope)) and the IC50 values of each compound were obtained. […]

[2] = test system: trimethylation level of histone H3K27 in G401 cells; assay: ELISA (H3K27 trimethylation) analysis in G401 cells; type: cell-based; details: Homo sapiens, G-401, 72 hours, H3K27me3 standardized to H3
In short: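 Cells exposed 72 h to 10-point 3-fold dilutions, top 10 μM, 0.5% final DMSO. Acid-extracted histones assayed by ELISA (ECL) for H3K27me3, normalized to total H3 and to DMSO control; IC50 from dose-response fit.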

[3] = test system: KARPAS-422 cells; assay: Cell proliferation analysis, KARPAS-422, 13 days, CellTiter-Glo; type: cell-based; details: Homo sapiens, 312 h
In short: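 KARPAS-422 cells were treated with PRC2 inhibitors over 9 three-fold dilutions from 10 μM top (0.5% DMSO, duplicates) in RPMI-1640 with 15% FBS at 37 °C. Every 3–4 days cells were counted and reseeded at 1×10^4/well with fresh compound. Viability was read by CellTiter-Glo luminescence on day 13.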

T1 sequence (O75530 whole entry): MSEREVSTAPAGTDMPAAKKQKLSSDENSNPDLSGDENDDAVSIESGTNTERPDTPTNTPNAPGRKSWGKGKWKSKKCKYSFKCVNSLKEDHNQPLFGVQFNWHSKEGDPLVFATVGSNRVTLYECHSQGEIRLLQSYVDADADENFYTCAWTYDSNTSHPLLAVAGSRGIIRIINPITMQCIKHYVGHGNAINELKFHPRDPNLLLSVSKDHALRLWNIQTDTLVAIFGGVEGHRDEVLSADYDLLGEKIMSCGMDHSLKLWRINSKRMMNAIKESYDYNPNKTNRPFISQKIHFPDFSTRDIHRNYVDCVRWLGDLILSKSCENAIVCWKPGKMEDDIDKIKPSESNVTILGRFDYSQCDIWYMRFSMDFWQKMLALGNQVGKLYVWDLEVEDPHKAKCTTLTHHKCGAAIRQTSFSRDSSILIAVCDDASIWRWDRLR

| IC50 [1] [µM] | IC50 [2] [µM] | IC50 [3] [µM] | Compound |
| --- | --- | --- | --- |
| 0.566 | 0.16 | 0.079 | O=S1(=O)C(F)=Cc2cc(-c3cnc(NCc4c(F)ccc5c4[C@H]4C[C@H]4O5)n4cnnc34)ccc21 [2-fluoro-5-(5-((((1aR,6bR)-5-fluoro-1a,6b-dihydro-1H-cyclopropa[b]benzofuran-6-yl)methyl)amino)-[1,2,4]triazolo[4,3-c]pyrimidin-8-yl)benzo[b]thiophene 1,1-dioxide] |
| 0.01 | 0.021 | 0.013 | O=S1(=O)C=Cc2c(-c3cnc(NCc4c(F)ccc5c4CCO5)n4cnnc34)cccc21 [4-(5-(((5-fluoro-2,3-dihydrobenzofuran-4-yl)methyl)amino)-[1,2,4]triazolo[4,3-c]pyrimidin-8-yl)benzo[b]thiophene 1,1-dioxide] |
| 0.0044 | 0.0008 | 0.0015 | Fc1ccc2c(c1CNc1ncc(-c3cccn4ccnc34)c3nncn13)CCO2 [N-((5-fluoro-2,3-dihydrobenzofuran-4-yl)methyl)-8-(imidazo[1,2-a]pyridin-8-yl)-[1,2,4]triazolo[4,3-c]pyrimidin-5-amine] |
| 0.016 | 0.0015 | 0.0011 | CC(=O)c1c(C)nc2c(-c3cnc(NCc4c(F)ccc5c4CCO5)n4cnnc34)cc(F)cn12 [1-(6-fluoro-8-(5-(((5-fluoro-2,3-dihydrobenzofuran-4-yl)methyl)amino)-[1,2,4]triazolo[4,3-c]pyrimidin-8-yl)-2-methylimidazo[1,2-a]pyridin-3-yl)ethan-1-one] |
| 0.0062 | 0.0038 | 0.001 | COC(=O)Cc1cnc2c(-c3cnc(NCc4c(F)ccc5c4CCO5)n4cnnc34)ccc(C)n12 [Methyl 2-(8-(5-(((5-fluoro-2,3-dihydrobenzofuran-4-yl)methyl)amino)-[1,2,4]triazolo[4,3-c]pyrimidin-8-yl)-5-methylimidazo[1,2-a]pyridin-3-yl)acetate] |
| 0.015 | 0.0056 | 0.0165 | Fc1ccc2c(c1CNc1ncc(-c3ccn4ccnc4c3)c3nncn13)CCO2 [N-((5-fluoro-2,3-dihydrobenzofuran-4-yl)methyl)-8-(imidazo[1,2-a]pyridin-7-yl)-[1,2,4]triazolo[4,3-c]pyrimidin-5-amine] |
| 0.0043 | 0.0061 | 0.0154 | Fc1ccc2c(c1CNc1ncc(-c3ccc4ccnn4c3)c3nncn13)CCO2 [N-((5-fluoro-2,3-dihydrobenzofuran-4-yl)methyl)-8-(pyrazolo[1,5-a]pyridin-6-yl)-[1,2,4]triazolo[4,3-c]pyrimidin-5-amine] |
| 0.0243 | 0.014 | 0.0116 | Cc1cc(-c2cnc(NCc3c(F)ccc4c3CCO4)n3cnnc23)c2nccn2c1 [N-((5-fluoro-2,3-dihydrobenzofuran-4-yl)methyl)-8-(6-methylimidazo[1,2-a]pyridin-8-yl)-[1,2,4]triazolo[4,3-c]pyrimidin-5-amine] |
| 0.021 | 0.0052 | 0.0086 | OCc1ccc(-c2cnc(NCc3c(F)ccc4c3CCO4)n3cnnc23)c2nccn12 [(8-(5-(((5-fluoro-2,3-dihydrobenzofuran-4-yl)methyl)amino)-[1,2,4]triazolo[4,3-c]pyrimidin-8-yl)imidazo[1,2-a]pyridin-5-yl)methanol] |
| 0.0035 | 0.001 | 0.0006 | Fc1ccc2c(c1CNc1ncc(-c3cccn4ccnc34)c3nncn13)[C@H]1C[C@H]1O2 [N-(((1aR,6bR)-5-fluoro-1a,6b-dihydro-1H-cyclopropa[b]benzofuran-6-yl)methyl)-8-(imidazo[1,2-a]pyridin-8-yl)-[1,2,4]triazolo[4,3-c]pyrimidin-5-amine] |
| 0.0026 | 0.0073 | 0.0049 | CC1=C(F)c2cc(-c3cnc(NCc4c(F)ccc5c4CCO5)n4cnnc34)ccc2S1(=O)=O [3-fluoro-5-(5-(((5-fluoro-2,3-dihydrobenzofuran-4-yl)methyl)amino)-[1,2,4]triazolo[4,3-c]pyrimidin-8-yl)-2-methylbenzo[b]thiophene 1,1-dioxide] |
| 0.003 | 0.0035 | 0.0013 | Cc1cn2cc(F)cc(-c3cnc(NCc4c(F)ccc5c4CCO5)n4cnnc34)c2n1 [N-((5-fluoro-2,3-dihydrobenzofuran-4-yl)methyl)-8-(6-fluoro-2-methylimidazo[1,2-a]pyridin-8-yl)-[1,2,4]triazolo[4,3-c]pyrimidin-5-amine] |
| 0.0054 | 0.075 | 0.033 | NCCC1=CS(=O)(=O)c2ccc(-c3cnc(NCc4c(F)ccc5c4[C@@H]4C[C@@H]4O5)n4cnnc34)cc21 [3-(2-aminoethyl)-5-(5-((((1aS,6bS)-5-fluoro-1a,6b-dihydro-1H-cyclopropa[b]benzofuran-6-yl)methyl)amino)-[1,2,4]triazolo[4,3-c]pyrimidin-8-yl)benzo[b]thiophene 1,1-dioxide] |
| 0.0042 | 0.0058 | 0.0055 | CC1=C(F)c2cc(-c3cnc(NCc4c(F)ccc5c4[C@H]4C[C@H]4O5)n4cnnc34)ccc2S1(=O)=O [3-fluoro-5-(5-((((1aR,6bR)-5-fluoro-1a,6b-dihydro-1H-cyclopropa[b]benzofuran-6-yl)methyl)amino)-[1,2,4]triazolo[4,3-c]pyrimidin-8-yl)-2-methylbenzo[b]thiophene 1,1-dioxide] |
| 0.0045 | 0.0073 | 0.0077 | Fc1ccc2c(c1CNc1ncc(-c3ccn4ncnc4c3)c3nncn13)[C@H]1C[C@H]1O2 [8-([1,2,4]triazolo[1,5-a]pyridin-7-yl)-N-(((1aR,6bR)-5-fluoro-1a,6b-dihydro-1H-cyclopropa[b]benzofuran-6-yl)methyl)-[1,2,4]triazolo[4,3-c]pyrimidin-5-amine] |
| 0.0028 | 0.0007 | 0.001 | Cc1ccc(-c2cnc(NCc3c(F)ccc4c3CCO4)n3cnnc23)c2ncc(C(C)C)n12 [N-((5-fluoro-2,3-dihydrobenzofuran-4-yl)methyl)-8-(3-isopropyl-5-methylimidazo[1,2-a]pyridin-8-yl)-[1,2,4]triazolo[4,3-c]pyrimidin-5-amine] |
| 0.0141 | 0.003 | 0.0024 | Cc1cn2cccc(-c3cnc(NCc4c(F)ccc5c4CCO5)n4cnnc34)c2n1 [N-((5-fluoro-2,3-dihydrobenzofuran-4-yl)methyl)-8-(2-methylimidazo[1,2-a]pyridin-8-yl)-[1,2,4]triazolo[4,3-c]pyrimidin-5-amine] |
| 0.0062 | 0.001 | 0.0017 | CC(=O)OCCc1cnc2c(-c3cnc(NCc4c(F)ccc5c4CCO5)n4cnnc34)ccc(C)n12 [2-(8-(5-(((5-fluoro-2,3-dihydrobenzofuran-4-yl)methyl)amino)-[1,2,4]triazolo[4,3-c]pyrimidin-8-yl)-5-methylimidazo[1,2-a]pyridin-3-yl)ethyl acetate] |
| 0.0049 | 0.0136 | 0.0243 | CC1=CS(=O)(=O)c2ccc(-c3cnc(NCc4c(F)ccc5c4[C@H]4C[C@H]4O5)n4cnnc34)cc21 [5-(5-((((1aR,6bR)-5-fluoro-1a,6b-dihydro-1H-cyclopropa[b]benzofuran-6-yl)methyl)amino)-[1,2,4]triazolo[4,3-c]pyrimidin-8-yl)-3-methylbenzo[b]thiophene 1,1-dioxide] |
